This passage reports %max, Activity and Ki results from ChEMBL document CHEMBL3045241, “Design, synthesis, and docking studies of novel telmisartanglitazone hybrid analogs for the treatment of metabolic syndrome” (Med Chem Res, 2009).

Experiment [1] addresses T1, Peroxisome proliferator-activated receptor gamma (Mus musculus) (UniProt P37238).
T1 sequence (whole entry): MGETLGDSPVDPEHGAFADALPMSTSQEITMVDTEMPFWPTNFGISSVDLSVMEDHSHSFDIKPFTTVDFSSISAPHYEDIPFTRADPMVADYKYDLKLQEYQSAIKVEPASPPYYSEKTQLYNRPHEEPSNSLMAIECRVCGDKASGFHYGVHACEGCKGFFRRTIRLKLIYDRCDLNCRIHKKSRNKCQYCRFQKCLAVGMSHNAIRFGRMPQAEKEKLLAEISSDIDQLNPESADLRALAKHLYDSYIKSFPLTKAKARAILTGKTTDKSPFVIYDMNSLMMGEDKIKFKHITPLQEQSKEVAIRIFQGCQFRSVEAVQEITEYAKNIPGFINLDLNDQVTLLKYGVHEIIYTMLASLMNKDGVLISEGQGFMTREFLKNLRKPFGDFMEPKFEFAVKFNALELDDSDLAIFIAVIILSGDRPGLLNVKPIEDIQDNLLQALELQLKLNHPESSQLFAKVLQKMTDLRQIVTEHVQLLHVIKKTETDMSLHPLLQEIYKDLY
Nature of the experiment: Agonist activity at Mus musculus (mouse) PPARgamma LBD expressed in african green monkey CV-1 cells co-expressing GAL4 assessed as […] at 1 uM after 24 hr by luciferase assay relative to rosiglitazone. It counts as cell-based.

In experiment [2] the test system is 3T3-L1. Put plainly: Induction of adipocyte differentiation in Mus musculus (mouse) 3T3L1 cells at 1 to 5 uM. It counts as functional, cell-based.
Experiment [3] addresses T2, Type-1 angiotensin II receptor A (Rattus norvegicus, UniProt P25095).
T2 sequence (P25095 whole entry): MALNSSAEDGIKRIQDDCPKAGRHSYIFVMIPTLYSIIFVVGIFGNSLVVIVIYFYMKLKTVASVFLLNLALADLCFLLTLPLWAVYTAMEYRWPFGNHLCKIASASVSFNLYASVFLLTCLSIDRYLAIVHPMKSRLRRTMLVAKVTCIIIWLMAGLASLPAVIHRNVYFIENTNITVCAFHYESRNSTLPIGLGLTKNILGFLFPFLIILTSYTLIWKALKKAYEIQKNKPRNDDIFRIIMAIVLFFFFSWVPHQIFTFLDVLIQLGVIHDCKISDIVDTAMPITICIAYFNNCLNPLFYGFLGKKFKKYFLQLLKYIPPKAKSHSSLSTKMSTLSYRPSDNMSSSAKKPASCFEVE
Put plainly: Displacement of [125I]-SI-Ang-2 from AT1 receptor in Rattus norvegicus Sprague-Dawley (rat) liver membranes after 2 hr. On the set-up: species or system Membrane. On the technique in general: In a radioligand displacement assay an active substance lowers the binding of a labelled ligand.

Structures are written as SMILES. Calls of active or inactive are those of the source. The rule behind the calls is not given here.

For orientation: Ki means a dissociation constant, usually derived from enzyme kinetics or from competition with a known ligand.

With `CCCc1nc2c(C)cc(-c3nc4ccccc4n3C)cc2n1Cc1ccc(-c2ccccc2C(=O)O)cc1`, the %max in experiment [1] turned out to be 21.2%. Moreover, the outcome in experiment [2] was Active.

`COC(=O)c1cc(CC2SC(=O)NC2=O)ccc1OCCN(C)C(=O)CCCCC1CCCCC1` (stereo unspecified) returned a Ki in experiment [3] of over 10 µM. Besides, the %max in experiment [1] turned out to be 90.4%.

In the case of `CCCc1nc2c(C)cc(-c3nc4ccccc4n3C)cc2n1CCOc1ccc(CC2SC(=O)NC2=O)cc1C(=O)OC` (stereo unspecified), the Ki in experiment [3] is over 10 µM.

`CCCc1nc2c(C)cc(Br)cc2n1CCOc1ccc(CC2SC(=O)NC2=O)cc1C(=O)OC` (stereo unspecified): in experiment [3], the Ki was over 10 µM. Further, in experiment [1], the %max was 51.6%.

On to `CCCc1nc2c(C)cc(-c3ccccc3)cc2n1CCOc1ccc(CC2SC(=O)NC2=O)cc1C(=O)OC` (stereo unspecified), for which the Ki in experiment [3] is over 10 µM. Further, the %max in experiment [1] was found to be 11.9%.

In experiment [3], `COC(=O)c1cc(CC2SC(=O)NC2=O)ccc1OCCn1c(CCCCC2CCCCC2)nc2ccccc21` (stereo unspecified) came in with a Ki of over 10 µM. The %max in experiment [1] amounted to 38.7%.
